Measurements as given in PubChem BioAssay AID2060891 (Molecular Pharmacology Branch, DTP, NCI, 2025).

Test system: K98450-129-R-PDC complex spheroid growth, percent test/control
Assay: Anticancer human tumor K98450-129-R-PDC patient-derived colon adenocarcinoma cell line growth inhibition [RAS]
Conditions: for IC50: curve of first compound; for viability, T/C: stronger effect = lower value
Procedure, shortened: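 Tumour cells grown as complex spheroids with HUVEC endothelial cells and mesenchymal stem cells, treated with RAS pathway inhibitor combinations. Each agent spans half-log steps from near clinical Cmax, or 10 microM where Cmax is unknown.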
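Note: spheroids exposed to agents for seven days before the viability readout.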
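Throughout, for viability, T/C: luminescence used as a proxy for viable cell amount.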

C[C@@H](NC(=O)c1ncnc(N)c1Cl)c1ncc(C(=O)Nc2cc(C(F)(F)F)c(Cl)cn2)s1 + C=CC(=O)N1CCN(c2nc(OCC3CCCN3C)nc3c(F)c(-c4nc(N)cc(C)c4C(F)(F)F)c(Cl)cc23)C(C)C1
IC50 (second compound 0.00316 µM): > 10 µM | IC50 (second compound 0.01 µM): > 10 µM | IC50 (second compound 0.0316 µM): > 10 µM | IC50 (second compound 0.1 µM): > 10 µM | IC50 (second compound 0.316 µM): < 0.0316 µM | IC50 (second compound 1 µM): < 0.0316 µM | viability, T/C (second compound 0.00316 µM, first compound 0.0316 µM): 101% | viability, T/C (second compound 0.00316 µM, first compound 0.1 µM): 98.6% | viability, T/C (second compound 0.00316 µM, first compound 0.316 µM): 102% | viability, T/C (second compound 0.00316 µM, first compound 1 µM): 108% | viability, T/C (second compound 0.00316 µM, first compound 3.16 µM): 115% | viability, T/C (second compound 0.00316 µM, first compound 10 µM): 94% | viability, T/C (second compound 0.01 µM, first compound 0.0316 µM): 91.2% | viability, T/C (second compound 0.01 µM, first compound 0.1 µM): 92.5% | viability, T/C (second compound 0.01 µM, first compound 0.316 µM): 89.5% | viability, T/C (second compound 0.01 µM, first compound 1 µM): 97.4% | viability, T/C (second compound 0.01 µM, first compound 3.16 µM): 94.3% | viability, T/C (second compound 0.01 µM, first compound 10 µM): 80.1% | viability, T/C (second compound 0.0316 µM, first compound 0.0316 µM): 76.3% | viability, T/C (second compound 0.0316 µM, first compound 0.1 µM): 80.2% | viability, T/C (second compound 0.0316 µM, first compound 0.316 µM): 76.3% | viability, T/C (second compound 0.0316 µM, first compound 1 µM): 77.2% | viability, T/C (second compound 0.0316 µM, first compound 3.16 µM): 80% | viability, T/C (second compound 0.0316 µM, first compound 10 µM): 65.1% | viability, T/C (second compound 0.1 µM, first compound 0.0316 µM): 63.8% | viability, T/C (second compound 0.1 µM, first compound 0.1 µM): 66.6% | viability, T/C (second compound 0.1 µM, first compound 0.316 µM): 59.2% | viability, T/C (second compound 0.1 µM, first compound 1 µM): 64.8% | viability, T/C (second compound 0.1 µM, first compound 3.16 µM): 69.9% | viability, T/C (second compound 0.1 µM, first compound 10 µM): 56.3% | viability, T/C (second compound 0.316 µM, first compound 0.0316 µM): 44.2% | viability, T/C (second compound 0.316 µM, first compound 0.1 µM): 50.4% | viability, T/C (second compound 0.316 µM, first compound 0.316 µM): 52.1% | viability, T/C (second compound 0.316 µM, first compound 1 µM): 49.9% | viability, T/C (second compound 0.316 µM, first compound 3.16 µM): 57% | viability, T/C (second compound 0.316 µM, first compound 10 µM): 46.1% | viability, T/C (second compound 1 µM, first compound 0.0316 µM): 37.1% | viability, T/C (second compound 1 µM, first compound 0.1 µM): 41.3% | viability, T/C (second compound 1 µM, first compound 0.316 µM): 44.6% | viability, T/C (second compound 1 µM, first compound 1 µM): 44.6% | viability, T/C (second compound 1 µM, first compound 3.16 µM): 49.7% | viability, T/C (second compound 1 µM, first compound 10 µM): 43.5%
